Experimental data reported in patent EP1591123A1, “USES OF NARINGENIN, NARINGIN AND SALTS THEREOF AS EXPECTORANTS IN THE TREATMENT OF COUGH, AND COMPOSITIONS THEREOF” (Su, Wei-wei, priority 2003, dated 2004).
Counter-ions that a name gives are not always drawn.

Test system: mice
Test: Dispel phlegm test of Naringin, Phenol Red excretion in trachea (Example 29)
Type: in vivo
Details: for Dispel phlegm ratio: group given drug / blank control group x 100%; for Excretion quantity of Phenol Red / Rectified excretion quantity of Phenol Red: mice, oral, X±S; for Rectified excretion quantity of Phenol Red: excretion quantity / weight of animal
Experimental: 1. […] Every group was 10 animals. Eight group were set including negative control group, positive control group, high dose group of Naringin, middle dose group of Naringin, low dose group of Naringin, high dose group of sodium salt of Naringin, middle dose group of sodium salt of Naringin, low dose group of sodium salt of Naringin. […]
• 1) Blank control group: physiological saline, 0.9% NaCl; • 2) Positive control group: 0.2g Tankejing was dissolve into 10 ml physiological saline and the sample concentration was 20 mg/ml to obtain the solution for positive control. • 3) low dose group of Naringin: 0.5 mg/ml solution of Naringin was prepared by weighting out the appropriate amount of 5 mg Naringin and dissolving it by ultrasonication in 10 ml physiological saline. • 4) middle dose group of Naringin: 1.5 mg/ml solution of Naringin was prepared by weighting out the appropriate amount of 15 mg Naringin and dissolving it by ultrasonication in 10 ml physiological saline. • 5) high dose group of Naringin: 4.5 mg/ml solution of Naringin was prepared by weighting out the appropriate amount of 45 mg Naringin and dissolving it by ultrasonication in 10 ml physiological saline. • 6) low dose group of sodium salt of Naringin: 0.5 mg/ml solution of sodium salt of Naringin was prepared by weighting out the appropriate amount of 5 mg sodium salt of Naringin and dissolving it by ultrasonication in 10 ml physiological saline. • 7) middle dose group of sodium salt of Naringin: 1.5 mg/ml solution of sodium salt of Naringin was prepared by weighting out the appropriate amount of 15 mg sodium salt of Naringin and dissolving it by ultrasonication in 10 ml physiological saline. • 8) high dose group of sodium salt of Naringin: 4.5 mg/ml solution of sodium salt of Naringin was prepared by weighting out the appropriate amount of 45 mg sodium salt of Naringin and dissolving it by ultrasonication in 10 ml physiological saline.
The calibration curve was calculated by concentration of Phenol Red as y-axis and OD value as x-axis. And the excretion account of Phenol Red in mice was quantitated by calibration curve. • 2) Animals were fasted for 12 hr before dosing. • 3) Animals were oral administered with labeled number, each animal was administered with 3 min and each group was accomplished in 30 min. • 4) After administered 30 min, every animal was injected 2 ml 5% Phenol Red solution via celiac injection. The time of every animal was 3 min. • 5): Every animal was executed with 3 min interval after celiac injection 30 min, and animal trachea was peeled off with forceps after neck skin sniped, which was riveted on operating table. • 6): plasma and Phenol Red adhered to trachea ektexine was sweeped by 0.9% NaCl solution with an injector. And filter paper was used to blot up the solution. • 7): Scissors cut down the animal trachea including thyroid cartilage and trachea back-end. • 8): The trachea was set in test tube with 1.5 ml 5% NaHCO3. • 9): The experiment of every animal was completed in 3 min. […] X indicates OD value; Y indicates excretion account of Phenol Red. • 14): Rectified excretion account of Phenol Red was calculated by account of Phenol Red and weight of animal. Statistical significance of the data was determined by Student's t-test with SPSS 8.0. Rectified excretion account of Phenol Red= Account of Phenol Red (ng) / weight of animal (kg).

C[C@@H]1O[C@@H](O[C@H]2[C@H](Oc3cc(O)c4c(c3)O[C@H](c3ccc(O)cc3)CC4=O)O[C@H](CO)[C@@H](O)[C@@H]2O)[C@H](O)[C@H](O)[C@H]1O [Naringin, 4', 5', 7-trihydroxyflavanone-7-rhamnoneglucoside]
Dispel phlegm ratio (5 mg/kg): 159.02%
Dispel phlegm ratio (15 mg/kg): 173.12%
Dispel phlegm ratio (45 mg/kg): 416.72%
dispel phlegm effect (high dose group compared to positive control group of Tankejing): statistical better than Tankejing
Excretion quantity of Phenol Red (5 mg/kg): 0.4914 ± 0.2215 ng
Rectified excretion quantity of Phenol Red (5 mg/kg): 25.5811 ± 11.8338 ng/kg
Excretion quantity of Phenol Red (15 mg/kg): 0.5296 ± 0.2195 ng
Rectified excretion quantity of Phenol Red (15 mg/kg): 26.7597 ± 13.1502 ng/kg
Excretion quantity of Phenol Red (45 mg/kg): 1.1488 ± 0.2431 ng
Rectified excretion quantity of Phenol Red (45 mg/kg): 64.4162 ± 18.7239 ng/kg
exudates increase of mice trachea (three doses (low, middle, high), versus negative control group): statistical significance stimulate the exudates increase of mice trachea

C[C@@H]1O[C@@H](O[C@H]2[C@H](Oc3cc(O)c4c(c3)O[C@H](c3ccc(O)cc3)CC4=O)O[C@H](CO)[C@@H](O)[C@@H]2O)[C@H](O)[C@H](O)[C@H]1O [sodium salt of Naringin]
Dispel phlegm ratio (5 mg/kg): 169.37%
Dispel phlegm ratio (15 mg/kg): 189.65%
Dispel phlegm ratio (45 mg/kg): 432.71%
Excretion quantity of Phenol Red (5 mg/kg): 0.5250 ± 0.1265 ng
Rectified excretion quantity of Phenol Red (5 mg/kg): 26.1805 ± 6.9069 ng/kg
Excretion quantity of Phenol Red (15 mg/kg): 0.5748 ± 0.1417 ng
Rectified excretion quantity of Phenol Red (15 mg/kg): 29.3153 ± 7.7189 ng/kg
Excretion quantity of Phenol Red (45 mg/kg): 1.3115 ± 0.3232 ng
Rectified excretion quantity of Phenol Red (45 mg/kg): 66.8867 ± 17.6117 ng/kg
